Results from PubChem BioAssay (NCI).
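All cell lines were grown in 96-well plates and treated with compound for 48 hours. GI50 marks 50% less growth. At the TGI there is no net growth.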

Experiments:
Assay in all cases: DTP human tumour cell line panel, 48 h
786-0 renal = test system: 786-0 renal
A498 renal = test system: A498 renal
A549 NSCLC = test system: A549 NSCLC
ACHN renal = test system: ACHN renal
BT-549 breast = test system: BT-549 breast
CAKI-1 renal = test system: CAKI-1 renal
CCRF-CEM leukemia = test system: CCRF-CEM leukemia
COLO 205 colon = test system: COLO 205 colon
DU-145 prostate = test system: DU-145 prostate
EKVX NSCLC = test system: EKVX NSCLC
HCC-2998 colon = test system: HCC-2998 colon
HCT-116 colon = test system: HCT-116 colon
HCT-15 colon = test system: HCT-15 colon
HL-60(TB) leukemia = test system: HL-60(TB) leukemia
HOP-62 NSCLC = test system: HOP-62 NSCLC
HOP-92 NSCLC = test system: HOP-92 NSCLC
HS 578T breast = test system: HS 578T breast
HT29 colon = test system: HT29 colon
IGROV1 ovarian = test system: IGROV1 ovarian
K-562 leukemia = test system: K-562 leukemia
KM12 colon = test system: KM12 colon
LOX IMVI melanoma = test system: LOX IMVI melanoma
M14 melanoma = test system: M14 melanoma
MALME-3M melanoma = test system: MALME-3M melanoma
MCF7 breast = test system: MCF7 breast
MDA-MB-231 breast = test system: MDA-MB-231 breast
MDA-MB-435 = test system: MDA-MB-435
MOLT-4 leukemia = test system: MOLT-4 leukemia
NCI-H226 lung = test system: NCI-H226 lung
NCI-H23 lung = test system: NCI-H23 lung
NCI-H460 lung = test system: NCI-H460 lung
NCI-H522 lung = test system: NCI-H522 lung
NCI/ADR-RES ovarian = test system: NCI/ADR-RES ovarian
OVCAR-3 ovarian = test system: OVCAR-3 ovarian
OVCAR-4 ovarian = test system: OVCAR-4 ovarian
OVCAR-5 ovarian = test system: OVCAR-5 ovarian
OVCAR-8 ovarian = test system: OVCAR-8 ovarian
PC-3 prostate = test system: PC-3 prostate
RPMI-8226 leukemia = test system: RPMI-8226 leukemia
RXF 393 renal = test system: RXF 393 renal
SF-268 CNS = test system: SF-268 CNS
SF-295 CNS = test system: SF-295 CNS
SF-539 CNS = test system: SF-539 CNS
SK-MEL-2 melanoma = test system: SK-MEL-2 melanoma
SK-MEL-28 melanoma = test system: SK-MEL-28 melanoma
SK-MEL-5 melanoma = test system: SK-MEL-5 melanoma
SK-OV-3 ovarian = test system: SK-OV-3 ovarian
SN12C renal = test system: SN12C renal
SNB-19 CNS = test system: SNB-19 CNS
SNB-75 CNS = test system: SNB-75 CNS
SR leukemia = test system: SR leukemia
SW-620 colon = test system: SW-620 colon
T-47D breast = test system: T-47D breast
TK-10 renal = test system: TK-10 renal
U251 CNS = test system: U251 CNS
UACC-257 melanoma = test system: UACC-257 melanoma
UACC-62 melanoma = test system: UACC-62 melanoma
UO-31 renal = test system: UO-31 renal

C#Cc1cccc(Nc2ncnc3cc(OC)c(OCCCCCCC(=O)NO)cc23)c1
GI50 (786-0 renal): 448 nM
TGI (786-0 renal): 4680 nM
GI50 (A498 renal): 162 nM
TGI (A498 renal): 662 nM
GI50 (A549 NSCLC): 404 nM
TGI (A549 NSCLC): 4450 nM
GI50 (ACHN renal): 127 nM
TGI (ACHN renal): 2480 nM
GI50 (BT-549 breast): 783 nM
TGI (BT-549 breast): 5690 nM
GI50 (CAKI-1 renal): 261 nM
TGI (CAKI-1 renal): 3040 nM
GI50 (CCRF-CEM leukemia): 40.4 nM
TGI (CCRF-CEM leukemia): 5850 nM
GI50 (COLO 205 colon): 157 nM
TGI (COLO 205 colon): 538 nM
GI50 (DU-145 prostate): 136 nM
TGI (DU-145 prostate): 4450 nM
GI50 (EKVX NSCLC): 154 nM
TGI (EKVX NSCLC): 6340 nM
GI50 (HCC-2998 colon): 217 nM
TGI (HCC-2998 colon): 1340 nM
GI50 (HCT-116 colon): 79.1 nM
TGI (HCT-116 colon): 3330 nM
GI50 (HCT-15 colon): 1170 nM
TGI (HCT-15 colon): 6100 nM
GI50 (HL-60(TB) leukemia): 334 nM
TGI (HL-60(TB) leukemia): 1700 nM
GI50 (HOP-62 NSCLC): 311 nM
TGI (HOP-62 NSCLC): 4570 nM
GI50 (HOP-92 NSCLC): 51.2 nM
TGI (HOP-92 NSCLC): 415 nM
GI50 (HS 578T breast): 86 nM
TGI (HS 578T breast): 1040 nM
GI50 (HT29 colon): 253 nM
TGI (HT29 colon): 5330 nM
GI50 (IGROV1 ovarian): 86.4 nM
TGI (IGROV1 ovarian): 476 nM
GI50 (K-562 leukemia): 81.7 nM
GI50 (KM12 colon): 197 nM
TGI (KM12 colon): 3460 nM
GI50 (LOX IMVI melanoma): 195 nM
TGI (LOX IMVI melanoma): 1810 nM
GI50 (M14 melanoma): 210 nM
TGI (M14 melanoma): 1990 nM
GI50 (MALME-3M melanoma): 37 nM
TGI (MALME-3M melanoma): 763 nM
GI50 (MCF7 breast): 190 nM
TGI (MCF7 breast): 3500 nM
GI50 (MDA-MB-231 breast): 274 nM
TGI (MDA-MB-231 breast): 2290 nM
GI50 (MDA-MB-435): 145 nM
TGI (MDA-MB-435): 528 nM
GI50 (MOLT-4 leukemia): 86.4 nM
TGI (MOLT-4 leukemia): 1930 nM
GI50 (NCI-H226 lung): 853 nM
TGI (NCI-H226 lung): 4810 nM
GI50 (NCI-H23 lung): 383 nM
TGI (NCI-H23 lung): 2570 nM
GI50 (NCI-H460 lung): 444 nM
TGI (NCI-H460 lung): 4310 nM
GI50 (NCI-H522 lung): 30.5 nM
TGI (NCI-H522 lung): 430 nM
GI50 (NCI/ADR-RES ovarian): 917 nM
TGI (NCI/ADR-RES ovarian): 6910 nM
GI50 (OVCAR-3 ovarian): 129 nM
TGI (OVCAR-3 ovarian): 1640 nM
GI50 (OVCAR-4 ovarian): 374 nM
TGI (OVCAR-4 ovarian): 5340 nM
GI50 (OVCAR-5 ovarian): 121 nM
TGI (OVCAR-5 ovarian): 3000 nM
GI50 (OVCAR-8 ovarian): 117 nM
TGI (OVCAR-8 ovarian): 4430 nM
GI50 (PC-3 prostate): 273 nM
TGI (PC-3 prostate): 5380 nM
GI50 (RPMI-8226 leukemia): 302 nM
TGI (RPMI-8226 leukemia): 1780 nM
GI50 (RXF 393 renal): 75.2 nM
TGI (RXF 393 renal): 367 nM
GI50 (SF-268 CNS): 379 nM
TGI (SF-268 CNS): 2650 nM
GI50 (SF-295 CNS): 311 nM
TGI (SF-295 CNS): 2180 nM
GI50 (SF-539 CNS): 198 nM
TGI (SF-539 CNS): 1340 nM
GI50 (SK-MEL-2 melanoma): 309 nM
TGI (SK-MEL-2 melanoma): 1850 nM
GI50 (SK-MEL-28 melanoma): 136 nM
TGI (SK-MEL-28 melanoma): 1470 nM
GI50 (SK-MEL-5 melanoma): 177 nM
TGI (SK-MEL-5 melanoma): 496 nM
GI50 (SK-OV-3 ovarian): 208 nM
TGI (SK-OV-3 ovarian): 1030 nM
GI50 (SN12C renal): 129 nM
TGI (SN12C renal): 4210 nM
GI50 (SNB-19 CNS): 115 nM
TGI (SNB-19 CNS): 3650 nM
GI50 (SNB-75 CNS): 26.7 nM
TGI (SNB-75 CNS): 468 nM
GI50 (SR leukemia): 21.9 nM
TGI (SR leukemia): 2090 nM
GI50 (SW-620 colon): 58 nM
TGI (SW-620 colon): 319 nM
GI50 (T-47D breast): 46.5 nM
TGI (T-47D breast): 495 nM
GI50 (TK-10 renal): 185 nM
TGI (TK-10 renal): 2360 nM
GI50 (U251 CNS): 151 nM
TGI (U251 CNS): 4070 nM
GI50 (UACC-257 melanoma): 123 nM
TGI (UACC-257 melanoma): 1120 nM
GI50 (UACC-62 melanoma): 79.7 nM
TGI (UACC-62 melanoma): 344 nM
GI50 (UO-31 renal): 141 nM
TGI (UO-31 renal): 2690 nM
